The assay addresses Envelope glycoprotein gp160 (Human immunodeficiency virus 1, UniProt Q6QLK5). Description: inhibitors of HIV fusion peptide binding, primary screen, biochemical, uHTS, fluorescence dequenching (AID 1986).

We go through 1 compound from ChEMBL document CHEMBL1201862, “PubChem BioAssay data set” (2004).

Active and inactive are the calls of the source. Cut-off read from the data, not from the text of the source: actives have a measured IC50 and inactives only a lower limit.

Sequence of Envelope glycoprotein gp160 (Q6QLK5 whole entry, the tested form may be a part): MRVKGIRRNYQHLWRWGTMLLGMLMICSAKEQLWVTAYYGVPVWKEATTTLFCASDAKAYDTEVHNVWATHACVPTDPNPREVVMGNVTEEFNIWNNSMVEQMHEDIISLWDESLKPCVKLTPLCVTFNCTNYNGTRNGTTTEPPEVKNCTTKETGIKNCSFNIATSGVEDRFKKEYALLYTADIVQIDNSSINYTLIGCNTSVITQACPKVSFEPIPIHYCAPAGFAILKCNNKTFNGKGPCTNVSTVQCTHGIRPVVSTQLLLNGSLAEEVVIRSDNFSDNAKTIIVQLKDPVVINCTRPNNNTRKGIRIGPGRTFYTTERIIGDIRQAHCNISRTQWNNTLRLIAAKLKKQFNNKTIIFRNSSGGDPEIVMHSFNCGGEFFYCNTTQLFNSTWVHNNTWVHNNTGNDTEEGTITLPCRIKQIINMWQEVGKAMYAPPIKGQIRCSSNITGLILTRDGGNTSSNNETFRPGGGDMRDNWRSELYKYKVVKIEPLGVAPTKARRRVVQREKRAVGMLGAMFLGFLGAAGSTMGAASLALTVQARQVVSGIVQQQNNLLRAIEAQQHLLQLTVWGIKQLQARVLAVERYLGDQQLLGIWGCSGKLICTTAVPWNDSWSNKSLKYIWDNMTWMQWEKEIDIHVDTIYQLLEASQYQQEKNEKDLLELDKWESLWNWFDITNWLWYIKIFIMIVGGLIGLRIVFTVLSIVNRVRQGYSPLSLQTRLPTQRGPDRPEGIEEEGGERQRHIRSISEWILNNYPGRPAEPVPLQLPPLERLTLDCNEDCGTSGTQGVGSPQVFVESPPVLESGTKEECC

In general, IC50 refers to the concentration needed to halve the response being measured. As for `O=C(O)c1ccc(-c2ccc(/C=c3/sc4nc5ccccc5n4c3=O)o2)cc1Cl`, the IC50 is 13.7 µM (active).
